“Also recorded” adds a separate entry of the source.
What was measured:
[1] = test system: cord blood mononuclear cells (CBMCs); assay: Macrophage lineage in CBMCs; format: cell-based, human; settings: 100 μM and LPS 50 ng/mL, 72 h (3d), HLA-DRlow/CD163high
Source text: N=3, *P<0.05, Two-way ANOVA was used for statistical analysis.

[2] = test system: preterm lamb model of BPD; assay: Respiratory system mechanics (ventilator, forced oscillation technique, methacholine challenge); format: in vivo
Procedure: Respiratory system mechanics assessments with methacholine challenge. The respiratory system mechanics were assessed for the early-stage study (DOL1-10) and late-stage study (DOL10-90). For the early-stage research, the Drager ventilator recorded respiratory system mechanics every 5 min while the PT lambs were intubated and mechanically ventilated. The parameters were dynamic lung compliance and resistance. The inventors averaged the parameters every 12 h.
For the early and late-stage studies, after the lambs were extubated and transitioned to noninvasive respiratory support and spontaneously breathing (DOL7-10) and thereafter to DOL90, the inventors used forced oscillometry (FOT; model Tremoflo N-100; Thorasys, Thoracic Medical Systems Inc., Montreal, QC, Canada), with a filter (Humid-Vent Filter Small A, Teleflex Medical, Ireland). This instrument, validated in term and PT human infants,^18 allows the measurement of respiratory system mechanics in uncooperative subjects (not intubated and breathing spontaneously) by applying a pressure stimulus at the airway opening and measuring the resulting flow. The inventors used a small canine mask (product number 93815026; Midmark Corp., Versailles, OH). The FOT device was calibrated daily, and the use followed the manufacturer's instructions. The inventors used the standard TremoFlo-supplied software without modifications. The software enables post hoc inspection of the measurement time course. As recommended by the manufacturer, any measurement with a leak was discarded. FOT measurements were made for the FPT lambs at 1 month corrected postnatal age (1 moC; DOL60) and 2 moC (DOL90). The comparison time points for term reference lambs were matched for corrected postnatal age.
FOT analysis was done on lambs that stood prone, supported by a veterinary sling. The lambs were given Lorazepam (0.1 mg/Kg, intramuscularly) to keep them calm. The mask was placed over their muzzle and held in place by a tender. The lambs were habituated to the sling and mask before testing was done. FOT was used to measure respiratory system resistance and reactance in four steps: (1) baseline, (2) bronchodilator (albuterol), (3) bronchoconstrictor (methacholine challenge), and (4) bronchodilator (albuterol). The inventors used an Aeroneb Pro nebulizer (Aerogen Ltd, Galway, Ireland) connected to the mask. The inventors repeatedly measured tissue O2 saturation by pulse oximetry, heart rate, and blood pressure. After the baseline measurement, the inventors nebulized albuterol (1.5 mL; Hi-Tech Pharmacal Co., Amityville, NY) to dilate the airways in each lamb before methacholine challenge. Airway responsiveness was assessed during stepwise increases in nebulized methacholine (Provocholine; Pancap, Inc., Markham, Ontario, Canada), according to the ATS 1999 guideline^19 and reported by the inventors for FPT and term reference lambs.^14 Methacholine concentration was doubled for each step, starting from 0.06 mg/mL up to a maximum concentration of 4.00 mg/mL. At the end of the methacholine challenge steps, 1.5 mL of albuterol was nebulized to dilate the airways. All lambs tolerated the procedure, which took 45-60 min.

[3] = FOT, d90, FPT lambs vs FPT vehicle
[4] = ventilator-measured, invasive mechanical ventilation DOL1-7, PT lambs vs vehicle

CC(=O)NC1C(Oc2ccc([N+](=O)[O-])cc2)OC(CO)C(O)C1O (stereo not drawn) [AVR-48]
macrophage lineage [1]: preference for intermediate macrophage lineage
resistance and reactance of the respiratory system ([2]; FOT, DOL 60, late-stage study): No significant difference
baseline reactance at 5 and 10 Hz (upper and large airways) [2, 3]: significantly less negative
baseline resistance at 5 Hz (upper and large airways) [2, 3]: significantly lower
reactance at 5 and 10 Hz after methacholine challenge [2, 3]: significantly less negative
reactance at 7-20 Hz after albuterol nebulization [2, 3]: less negative reactance
resistance at 5 Hz after methacholine challenge [2, 3]: significantly lower resistance
resistance at 7-20 Hz after albuterol nebulization [2, 3]: significantly lower resistance
respiratory system resistance in large (5 Hz), middle (7-20 Hz), and small (41 Hz) airways ([2]; FOT, end of early-stage study (DOL10), PT lambs 3.0 mg/kg vs vehicle): significantly lower resistance
airway reactance AX (area under the curve below zero) ([2]; FOT, end of early-stage study (DOL10), PT lambs vs vehicle): significantly lower
dynamic lung compliance [2, 4]: No statistically significant differences; also recorded: consistently lower
lung resistance [2, 4]: No statistically significant differences

Source: patent publication US20250332183A1, “COMPOSITIONS AND METHODS FOR THE STIMULATION OF INTERMEDIATE MACROPHAGES AND TREATMENTS THEREWITH” (priority 2024, published 2025)
